One assay concerns FADD−/− Jurkat cells. As to the kind of experiment: Necroptosis inhibition assay, TNF-α-induced necroptosis (CellTiter-Glo 2.0). The class given is cell-based, human. The conditions noted are these: TNF-α 15 ng/mL; for Necroptosis inhibition assay (Rescue %) 1 μM: compound 1 μM; for Necroptosis inhibition assay (Rescue %) 10 μM: compound 10 μM. An outline of the steps:
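Necroptosis was triggered by TNF-α at 15 ng/mL final following 30 minutes of compound exposure (0.1, 1 or 10 μM final). Incubation ran 20 to 24 hours at 37° C under 5% CO2; cell ATP was then quantified by luminescence.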
In general terms: ATP-based viability assays read luminescence as a measure of living cells.

Assay [1] concerns the target T1, MLKL (Homo sapiens, UniProt Q8NB16).
T1 sequence (Q8NB16 1-471): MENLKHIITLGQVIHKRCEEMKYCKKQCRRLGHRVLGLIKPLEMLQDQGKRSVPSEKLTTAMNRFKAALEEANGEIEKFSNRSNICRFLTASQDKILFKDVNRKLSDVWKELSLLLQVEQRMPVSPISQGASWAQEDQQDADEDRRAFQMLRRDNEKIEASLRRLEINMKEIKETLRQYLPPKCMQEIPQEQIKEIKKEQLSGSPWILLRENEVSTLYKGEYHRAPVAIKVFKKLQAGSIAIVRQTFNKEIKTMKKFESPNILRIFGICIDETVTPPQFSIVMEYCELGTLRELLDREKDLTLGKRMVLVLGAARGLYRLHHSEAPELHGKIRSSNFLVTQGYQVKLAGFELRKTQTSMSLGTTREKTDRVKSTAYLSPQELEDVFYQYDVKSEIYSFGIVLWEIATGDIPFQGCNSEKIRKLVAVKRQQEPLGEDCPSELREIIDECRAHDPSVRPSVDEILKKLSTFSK
As to the kind of experiment: MLKL degradation assay in HepG2 cell line (western blot). The class given is cell-based. Set-up: endogenous in cells; host or cells: HepG2 or HaCaT. The conditions noted are these: cell line not given; for Degradation assay (Degradation %) 1 μM: compound 1 μM; for Degradation assay (Degradation %) 10 μM: compound 10 μM. On the procedure: MLKL degradation ability was evaluated in the following method.
1 mL of Human liver cancer cell line (HepG2 cell line) or human skin cell line (HaCaT cell line) was equally distributed into each well at 2.0×10^5 cells/mL in a 12-well cell culture plate. On the next day, the medium was replaced with a medium made so that the final concentration of test compound was 1 or 10 μM (1 mL/well), and incubated in 5% CO2, at 37° C. for 20-24 hours (Thermo scientific, Forma steri-cycle).
For protein preparation after incubation, cells were washed with 1×TBST, and 60 μL of RIPA lysis buffer containing Halt™ Protease and Phosphatase Inhibitor Cocktail was dispensed into each well. After scraping the cells with a scraper, the cells were recovered, and the pallet was homogenized and reacted on ice for 30 minutes. After the cells were centrifuged at 13,000 rpm, 10 minutes, 4° C., the supernatant was transferred to a new E-tube. For protein quantification, after dispensing sample and BCA (0-4 mg/ml) in a 96 well plate, 100 μL of BCA was dispensed and reacted in a 37° C. incubator for 30 minutes. After measuring the absorbance (SpectraMax, M5e, 562 nm), the amount of the sample was adjusted with the same concentration of protein and 4× Laemmli sample buffer, DW, and reacted at 100° C. for 5 minutes.
After assembling the MP TGX Precast Gel in the Mini-PROTEAN Tetra Cell, the same protein (10-15 μg) was added in an 8-10 μL volume per well, 1×Tris-Glycine Buffer was added, and loading was performed. After loading was completed, transfer was performed using Pierce G2 Fast Blotter and Pierce 1-Step Transfer Buffer. After completion of the transfer, 10 ml of SuperBlock™ Blocking Buffer was dispensed and reacted at room temperature for 10 minutes. 5% BSA containing the primary antibody was dispensed and reacted over night at 4° C. The next day, washing was performed three times with 1×TBST at room temperature for 10 minutes. 5% BSA containing the secondary antibody was dispensed and reacted at room temperature for 1 hour. Washing was performed three times with 1×TBST at room temperature for 10 minutes. The amount of protein expression was measured using chemiluminescence (LuminoGraph, ATTO).
Background: Immunoblotting shows a protein as a band on a membrane.

In assay [2] the target is T1, MLKL. The experiment in a line: Measurement of binding affinity with MLKL receptor (competitive binding assay, Kd). More on the design: made in house; host or cells: HEK 293 cell line (T7 phage in E. coli BL21-derived host is also described). An outline of the steps: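 MLKL was produced in HEK 293 cells and tagged with DNA for detection. Liganded beads were blocked with excess biotin and washed to cut non-specific binding, then compounds (111× DMSO stocks, 0.9% DMSO in assay) competed for binding. Eluate kinase was measured by qPCR for Kd.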

pKd: −log10 of the molar value.

On to `Nc1ncc(-c2cnn(C3CCN(C(=O)CC4CCN(C(=O)C5CN(c6ccc7c(c6)C(=O)N(C6CCC(=O)NC6=O)C7=O)C5)CC4)CC3)c2)nc1C(=O)O[C@@H](C(=O)Nc1ccc(F)cc1)c1ccccc1` (stereo partly drawn) [TDH-401, (R)-2-((4-fluorophenyl)amino)-2-oxo-1-phenylethyl 3-amino-6-(1-(1-(2-(1-(1-(2-(2,6-dioxopiperidin-3-yl)-1,3-dioxoisoindolin-5-yl)azetidine-3-carbonyl)piperidin-4-yl)acetyl)piperidin-4-yl)-1H-pyrazol-4-yl)pyrazine-2-carboxylate], for which, in the assay on FADD−/− Jurkat cells (FADD−/− Jurkat cells), the “Necroptosis inhibition assay (Rescue %) 1 μM” value is given as 33.10% and the “Necroptosis inhibition assay (Rescue %) 10 μM” value came to 28.25%. Further, on MLKL [1], the “Degradation assay (Degradation %) 1 μM” value is on record as 74.27% and the “Degradation assay (Degradation %) 10 μM” value turned out to be 72.99%. Besides, the pKd (commonly the Kd on a negative log10 scale, so that one unit is a factor of ten) on MLKL [2] is 8.17.
With `Nc1ncc(-c2cnn(C3CCN(CCCCCCCCCCNC(=O)COc4ccc5c(c4)C(=O)N(C4CCC(=O)NC4=O)C5=O)CC3)c2)nc1C(=O)O[C@@H](C(=O)Nc1ccc(F)cc1)c1ccccc1` (stereo partly drawn) [TDH-164, (R)-2-((4-fluorophenyl)amino)-2-oxo-1-phenylethyl 3-amino-6-(1-(1-(10-(2-((2-(2,6-dioxopiperidin-3-yl)-1,3-dioxoisoindolin-5-yl)oxy)acetamido)decyl)piperidin-4-yl)-1H-pyrazol-4-yl)pyrazine-2-carboxylate], in the assay on FADD−/− Jurkat cells, the “Necroptosis inhibition assay (Rescue %) 1 μM” value was 27.84% and the “Necroptosis inhibition assay (Rescue %) 10 μM” value was determined as 10.5%. At MLKL [1], the “Degradation assay (Degradation %) 1 μM” value is listed as 55.2% and the “Degradation assay (Degradation %) 10 μM” value was 46.68%. Besides, the pKd on MLKL [2] is 7.70.
Regarding `Nc1ncc(-c2cnn(C3CCN(CCC4CCN(C5=CC(=O)N(C6CCC(=O)NC6=O)C5=O)CC4)CC3)c2)nc1C(=O)O[C@@H](C(=O)Nc1ccc(F)cc1)c1ccccc1` (stereo partly drawn) [TDH-522, (R)-2-((4-fluorophenyl)amino)-2-oxo-1-phenylethyl 3-amino-6-(1-(1-(2-(1-(1-(2,6-dioxopiperidin-3-yl)-2,5-dioxo-2,5-dihydro-1H-pyrrol-3-yl)piperidin-4-yl)ethyl)piperidin-4-yl)-1H-pyrazol-4-yl)pyrazine-2-carboxylate], in the assay with FADD−/− Jurkat cells (FADD−/− Jurkat cells), the “Necroptosis inhibition assay (Rescue %) 1 μM” value is on record as 21.52% and the “Necroptosis inhibition assay (Rescue %) 10 μM” value is −21.15%. Also, on MLKL [1], the “Degradation assay (Degradation %) 1 μM” value is 84.27% and the “Degradation assay (Degradation %) 10 μM” value is 51.16%. For the same molecule, the pKd on MLKL [2] is 8.89.
The matching figures for `Nc1ncc(-c2cnn(C3CCN(C4CC5(CCN(CC6CCN(C(=O)CNc7ccc8c(c7)C(=O)N(C7CCC(=O)NC7=O)C8=O)CC6)CC5)C4)CC3)c2)nc1C(=O)O[C@@H](C(=O)Nc1ccc(F)cc1)c1ccccc1` (stereo partly drawn) [TDH-443, (R)-2-((4-fluorophenyl)amino)-2-oxo-1-phenylethyl 3-amino-6-(1-(1-(7-((1-((2-(2,6-dioxopiperidin-3-yl)-1,3-dioxoisoindolin-5-yl)glycyl)piperidin-4-yl)methyl)-7-azaspiro[3.5]nonan-2-yl)piperidin-4-yl)-1H-pyrazol-4-yl)pyrazine-2-carboxylate]: 59.05%, −65.46%, 84.23%, 86.93% and 9.28.
Take `Nc1ncc(-c2cnn(C3CCN(C4CC5(CCN(CC6CCN(C(=O)c7ccc8c(c7)CN(C7CCC(=O)NC7=O)C8=O)CC6)CC5)C4)CC3)c2)nc1C(=O)O[C@@H](C(=O)Nc1ccc(F)cc1)c1ccccc1` (stereo partly drawn) [TDH-548, (R)-2-((4-fluorophenyl)amino)-2-oxo-1-phenylethyl 3-amino-6-(1-(1-(7-((1-(2-(2,6-dioxopiperidin-3-yl)-1-oxoisoindoline-5-carbonyl)piperidin-4-yl)methyl)-7-azaspiro[3.5]nonan-2-yl)piperidin-4-yl)-1H-pyrazol-4-yl)pyrazine-2-carboxylate]: in the assay on FADD−/− Jurkat cells (FADD−/− Jurkat cells), the “Necroptosis inhibition assay (Rescue %) 1 μM” value is listed as 64.86% and the “Necroptosis inhibition assay (Rescue %) 10 μM” value is 31.41%. Besides, at MLKL [1], the “Degradation assay (Degradation %) 1 μM” value came out at 89.05% and the “Degradation assay (Degradation %) 10 μM” value is 85.68%. The pKd at MLKL [2] was 9.72.
With `Nc1ncc(-c2cnn(C3CCN(C(=O)CC4CCN(C(=O)COc5cccc6c5C(=O)N(C5CCC(=O)NC5=O)C6=O)CC4)CC3)c2)nc1C(=O)O[C@@H](C(=O)Nc1ccc(F)cc1)c1ccccc1` (stereo partly drawn) [TDH-337, (R)-2-((4-fluorophenyl)amino)-2-oxo-1-phenylethyl 3-amino-6-(1-(1-(2-(1-(2-((2-(2,6-dioxopiperidin-3-yl)-1,3-dioxoisoindolin-4-yl)oxy)acetyl)piperidin-4-yl)acetyl)piperidin-4-yl)-1H-pyrazol-4-yl)pyrazine-2-carboxylate], in the assay on FADD−/− Jurkat cells, the “Necroptosis inhibition assay (Rescue %) 1 μM” value is reported as 32.31% and the “Necroptosis inhibition assay (Rescue %) 10 μM” value was found to be 45.5%. At MLKL [1], the “Degradation assay (Degradation %) 1 μM” value was determined as 46.82% and the “Degradation assay (Degradation %) 10 μM” value turned out to be 65.07%. On MLKL [2], this molecule gave a pKd of 8.60.
With `COc1cccc(NC(=O)[C@H](OC(=O)c2nc(-c3cnn(C4CCN(CCCN5CCN(C(=O)COc6ccc7c(c6)C(=O)N(C6CCC(=O)NC6=O)C7=O)CC5)CC4)c3)cnc2N)c2ccccc2)c1` (stereo partly drawn) [TDH-486, (R)-2-((3-methoxyphenyl)amino)-2-oxo-1-phenylethyl 3-amino-6-(1-(1-(3-(4-(2-((2-(2,6-dioxopiperidin-3-yl)-1,3-dioxoisoindolin-5-yl)oxy)acetyl)piperazin-1-yl)propyl)piperidin-4-yl)-1H-pyrazol-4-yl)pyrazine-2-carboxylate], in the assay with FADD−/− Jurkat cells (FADD−/− Jurkat cells), the “Necroptosis inhibition assay (Rescue %) 1 μM” value turned out to be 77.72% and the “Necroptosis inhibition assay (Rescue %) 10 μM” value was determined as 34.5%. Moreover, on MLKL [1], the “Degradation assay (Degradation %) 1 μM” value is listed as 85.37% and the “Degradation assay (Degradation %) 10 μM” value turned out to be 88.15%. The molecule further showed a pKd at MLKL [2] of 8.60.
As for `Nc1ncc(-c2cnn(C3CCN(CCOCCOCCOCCNC(=O)CNc4ccc5nnn(C6CCC(=O)NC6=O)c(=O)c5c4)CC3)c2)nc1C(=O)O[C@@H](C(=O)Nc1ccc(F)cc1)c1ccccc1` (stereo partly drawn) [TDH-175, (R)-2-((4-fluorophenyl)amino)-2-oxo-1-phenylethyl 3-amino-6-(1-(1-(1-((3-(2,6-dioxopiperidin-3-yl)-4-oxo-3,4-dihydrobenzo[d][1,2,3]triazin-6-yl)amino)-2-oxo-6,9,12-trioxa-3-azatetradecan-14-yl)piperidin-4-yl)-1H-pyrazol-4-yl)pyrazine-2-carboxylate], in the assay on FADD−/− Jurkat cells, the “Necroptosis inhibition assay (Rescue %) 1 μM” value came out at 18.82% and the “Necroptosis inhibition assay (Rescue %) 10 μM” value came to 35.89%. Moreover, on MLKL [1], the “Degradation assay (Degradation %) 1 μM” value is 48.93% and the “Degradation assay (Degradation %) 10 μM” value stood at 43.56%. Further, on MLKL [2], the pKd is 8.14.

For the origin of these results see US20240252488A1 (KOREA RESEARCH INSTITUTE OF CHEMICAL TECHNOLOGY, priority 2020, published 2024).
